Laboratory results taken from publication PMC12392461, “Beyond Estrogenicity: A Comparative Assessment of Bisphenol A and Its Alternatives in In Vitro Assays Questions Safety of Replacements” (Environmental Science & Technology, 2025).
Where two headings read alike, the source gives them in different places.

Key:
SH-SY5Y cells = assay: cells; conditions: for EC10: Homo sapiens, SH-SY5Y; for Specificity ratio (SRbaseline) SRNOI: against baseline cytotoxicity; for Relative effect potency REPNOI: relative to BPA; for EC10, linear / logEC10: NOI bioassay, dosing range all; for EC10, linear: linear model; for logEC10: log-logistic model;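 for Relative effect potency REPNOI: EC10 of BPA divided by EC10 of the test compound so values above 1 mean more potent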;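 for Specificity ratio (SRbaseline) SRNOI: ratio of predicted baseline cytotoxicity IC10 to the neurite outgrowth inhibition EC10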
From the text: All bioassay media components and the ERα-UAS-bla GripTite and PPARγ-UAS-bla cells were obtained from Thermo Fisher Scientific (Waltham, MA, USA). AREc32 reporter gene cells based on MCF7 were provided by C. Roland Wolf (Cancer Research UK); AhR CALUX cells (H4L7.5c2 derived from H4IIe) were provided by Michael Denison (UC Davis, USA); and SH-SY5Y cells were purchased from Sigma-Aldrich.
(§1) Cell culture conditions and bioassay protocols including response detection are provided in Text S2.1–2.4 and Table S3. − Cell viability was determined from cell confluency using an IncuCyte S3 Live-Cell Analysis System (Sartorius AG, Essen, Germany) before and after exposure, except for SH-SY5Y cells (live–dead staining with Nuclear Green LcS1 and propidium iodide, Abcam, UK). For metabolic activation experiments, cell viability was assessed using the ToxBLAzer DualScreen Kit (Thermo Fisher Scientific) to capture the remaining toxicity in ERα-UAS-bla GripTite after treatment with the aCYP catalyst (details in Text S2.4).
For ARE, the concentration that triggered an induction ratio of 1.5 (ECIR1.5) was used as the benchmark value, as detailed in Text S2.5. IC10 values also served as a threshold for data analysis in all assays; only concentrations below IC10 were considered when deriving EC10 or ECIR1.5. […]
S2: Cell culture and bioassays
S2.1: Cell Culturing Conditions
All suppliers and sources are given in detail in SI-Excel S3. The bioassay media for the different assays were prepared as follows: Assay medium for ER alpha-UAS-bla GripTite (ERα) and PPAR gamma-UAS-bla 293H (PPARγ) was prepared with 98% Opti-MEM, supplemented with 2% charcoal-stripped FBS, and 100 U/mL penicillin-streptomycin. MitoOxTox and AhR assay medium was comprised of 90% DMEM with GlutaMAX, supplemented with 10% FBS, and 100 U/mL penicillin-streptomycin. Neurotoxicity assay medium consisted of the neurobasal […]
(1 picture or pasted object on this page, not shown here) […]
medium, supplemented with 2% B-27 Supplement and 2 mM GlutaMAX Supplement. SH - SY5Y cells were differentiated with 10 µM all-trans retinoic acid prior to the assay.
S2.2: Cell Seeding and Incubation. For all bioassays, cell suspensions in the respective assay medium were dispensed into each well of 384-well plates using a MultiFlo Dispenser (Biotek, (now Agilent), Winooski, VT, U.S.). After seeding, the plates were incubated at 37° C and 5% CO₂ for […]. The final cell densities and plate types were as follows: Black poly-D-lysine coated 384-well plates (Product No. 354663, Corning Inc., NYC, U.S.) were used for PPARγ:
6500 cells/well, ERα: 5000 cells/well. White 384-well plates with a clear bottom (Product No.
781098, Greiner, Kremsmünster, Austria) were utilized for the MitoOxTox assay: 2650

[1] = Acidity constant (pKa) measurement, Sirius T3 UV-metric, and speciation at pH 7.4; conditions: for Double negative form (pH = 7.40) / Negative form (pH = 7.40) / Neutral form (pH = 7.40) / αneutral % (fraction of neutral species): from experimental pKa; for αneutral % (fraction of neutral species): pH 7.4; for pKa: pKa (Acid)
Procedure: Physicochemical properties provide input parameters for the baseline toxicity model. Acidity constants (pK a) and octanol–water partition constants of the neutral species (K ow) were measured with a Sirius T instrument from Pion Inc. (Sussex, UK) (Text S1.2 and Table S1). A detailed description of the pK a and K ow measurements can be found in literature. , […]
S1.2: pKa and log Kow measurements […]
titrator (Pion Inc., Sussex, U.K.). A detailed description of the experimental procedure is available in the literature.1 In brief, each sample was prepared by mixing 5 µL of a 10 mM dimethyl sulfoxide (DMSO) stock solution with 25 µL of a phosphate buffer solution (14.4 mM […]
A reference vial containing 5 µL of DMSO
(Roth, A994-100 ML) and 25 µL of phosphate buffer was analyzed alongside each sample.
The pKa values were determined using the automated UV-metric pKa protocol within the Sirius T3 Control software (version 2.0.0.0.). Each sample was subjected to three consecutive […]
from 2 to 12 by stepwise addition of 0.5 M HCl or 0.5 M potassium hydroxide while recording […]
UV absorbance. […]
To ensure reproducibility, measurements were conducted on at least two

[2] = test system: ERα-UAS-bla GripTite cells
Procedure: as §1, with “S2.4). […]” for “S2.4).”
The TK-Ratio method was used to evaluate the impact of abiotic CYP oxidation on the potency of tested compounds. […]
For experiments with the preceding aCYP activation, ERα cell viability was additionally calculated from the readout of the ToxBLAzer reagent. The ToxBLAzer assay was conducted following the manufacturer's instructions (Thermo Fisher, Waltham, MA, U.S.).13 Fluorescence intensity was recorded at the start of the assay ( Fwavelength(0h)) and after a 2-hour incubation at […]
eq. S11 for normalization.
Cell viability = F665nm(2h, sample)-F665nm(0h, average cell-free) (S11) F665nm(2h, average unexposed)-F665nm(0h, average cell-free) […]
the specific endpoint to avoid artifacts from cytotoxicity burst. 15
S2.5: Concentration-response curves (CRCs)
To avoid bias from cytotoxicity burst at higher concentrations, all concentrations exceeding the IC10 for cytotoxicity were excluded in the CRC modeling of effects but otherwise cytotoxicity and effects were fitted with the same model equations (response stands for cytotoxicity or effect). For ERα, AhR, ARE and PPARγ preferably a linear model was fitted to the linear portion of CRC up to maximum 30% effect (eq. S12),16 but in some cases it was necessary to choose a sigmoidal log-concentration-response model, specifically a log-logistic model (eq. S13), to derive effect concentrations and cytotoxicity. […]
This was done using the
AutomatedBioassayScreening19 published by Braun et al.,20 which also included an algorithm to choose the best model between eq. S12 and eq. S13.
Response (%) = slope × C (S12) […]
logEC =logEC − 1 ∙log (max−min − 100%) (S14)

[3] = read-out: EC10, linear transformed
[4] = against experimental cytotoxicity
[5] = Table S10, TKcytotoxicity-Ratio

Row | SMILES | EC10 (SH-SY5Y cells; read-out: EC10, NOI) [M] | EC10 (SH-SY5Y cells; read-out: EC10, NOI (M)) [M] | EC10 (SH-SY5Y cells; read-out: EC10, linear) [M] | EC10 (SH-SY5Y cells; [3]) [M] | EC10 (SH-SY5Y cells; read-out: logEC10) [M] | Specificity ratio (SRbaseline) SRNOI (SH-SY5Y cells) | Relative effect potency REPNOI (SH-SY5Y cells) | Double negative form (pH = 7.40) [1] [%] | Negative form (pH = 7.40) [1] [%] | Neutral form (pH = 7.40) [1] [%] | αneutral % (fraction of neutral species) [1] [%] | EC10, linear (SH-SY5Y cells) | logEC10 (SH-SY5Y cells) | pKa (Acid) [1] | pKa [1] | TKcytotoxicity [2, 5] | also measured
1 | CC1(C)C(O)C(C)(C)C1O (racemic) [r-TMCD, 2,2,4,4-Tetramethyl-1,3-cyclobutanediol (racemate)] | 0.00599 | 0.00599 | 0.00494 | 0.00599 | 0.00603 | 0.17 | 0.00848 | 0 | 0 | 100 | 100 | – | – | – | – | – | –
2 | O=S(=O)(c1ccc(O)cc1)c1ccccc1O [2,4-BPS, 2,4'-Dihydroxydiphenyl sulfone] | – | – | – | 0.000871 | – | – | – | 5 | 52 | 43 | 43 | no effect | no effect | 8.43 | 7.31 | – | TKcytotoxicity ([2]; human): 1.61
3 | CC(C)(c1ccc(OCC2CO2)cc1)c1ccc(OCC2CO2)cc1 (centres unmarked) [BADGE, Bisphenol A diglycidyl ether] | 3.81e-05 | 3.81e-05 | 3.69e-05 | 4.5e-05 | 3.8e-05 | 0.48 | 1.33 | 0 | 0 | 100 | 100 | – | – | – | – | – | Specificity ratio (SRcytotoxicity) SRNOI (SH-SY5Y cells; [4]): 1.50
4 | CC(C)CC(C)(c1ccc(O)cc1)c1ccc(O)cc1 [BP-MIBK, 4,4'-(1,3-Dimethylbutylidene)diphenol] | – | – | – | 5.05e-05 | – | – | – | – | – | – | – | no effect | no effect | – | – | – | TKcytotoxicity ([2]; human): 0.48
5 | CC(C)(c1ccc(O)cc1)c1ccc(O)cc1 [BPA, 4,4'-(Propane-2,2-diyl)diphenol, reference compound] | 5.08e-05 | 5.08e-05 | 7.16e-05 | 7.63e-05 | 5.13e-05 | 0.40 | 1.00 | 9.99e-6 | – | 100 | 100 | – | – | 9.85 | 8.78 | 1.13 | TKcytotoxicity (TK-Ratio for cytotoxicity) ([2]; IC10 before/after aCYP oxidation): ≤ 2; TKcytotoxicity ([2]; Table S11, TKcytotoxicity-Ratio): 0.63; Specificity ratio (SRcytotoxicity) SRNOI (SH-SY5Y cells; human, 24 h): 4.68; SR (neurite outgrowth inhibition) (SH-SY5Y cells; specificity ratio): < 10
6 | Oc1ccc(C(c2ccc(O)cc2)(C(F)(F)F)C(F)(F)F)cc1 [BPAF, 4,4'-(1,1,1,3,3,3-Hexafluoropropane-2,2-diyl)diphenol] | 1.62e-05 | 1.62e-05 | 1.93e-05 | 2.61e-05 | 1.62e-05 | – | – | 0.0417 | 4.47 | 95 | – | – | – | 8.73 | 9.43 | 1.14 | –
7 | O=S(=O)(c1ccc(O)cc1)c1ccc(O)cc1 [BPS, 4,4'-Sulfonyldiphenol] | – | – | – | 0.000411 | – | – | – | 9 | 52 | 39 | 39 | no effect | no effect | 8.16 | 7.28 | – | –
8 | C=CCOc1ccc(S(=O)(=O)c2ccc(O)cc2)cc1 [BPS-MAE, 4-[[4-(Allyloxy)phenyl]sulfonyl]phenol] | 2.52e-05 | 2.52e-05 | 6.61e-05 | 2.55e-05 | 2.51e-05 | – | – | – | – | – | – | – | – | – | – | 2.91 | –
9 | Cc1cc(Cc2cc(C)c(O)c(C)c2)cc(C)c1O [TMBPF, Bis(3,5-dimethyl-4-hydroxyphenyl)methane] | 4.28e-06 | 4.28e-06 | 5.06e-06 | 5.49e-06 | 4.27e-06 | 2.18 | 11.87 | – | – | – | – | – | – | – | – | 0.35 | Specificity ratio (SRcytotoxicity) SRNOI (SH-SY5Y cells; [4]): 2.97
10 | CC1(C)[C@H](O)C(C)(C)[C@H]1O [Trans TMCD] | – | – | 0.00531 | 0.00415 | 0.00417 | – | – | – | – | – | – | – | – | – | – | – | –
